According to patent publication US10551389B2, “Target binding molecules identified by kinetic target-guided synthesis” (UNIVERSITY OF SOUTH FLORIDA, priority 2013, dated 2020):

Experiments:
[1] = molecular target: Mcl-1 (Homo sapiens, UniProt Q07820); experiment: Inhibition of Mcl-1 (disruption of Mcl-1/Bim interaction); type: binding; conditions: for % Inhibition (25 μM) Mcl-1 / inhibition at 25 µM: compound at 25 μM; for % Inhibition (50 μM) Mcl-1 / inhibition at 50 µM: compound at 50 μM
Protocol: (§1) In a subsequent study, a structurally diverse library of forty five thio acids and thirty eight sulfonyl azides (identified above) was screened in parallel against Mcl-1 and Bcl-XL using the above mentioned approach. Several potential hit combinations were identified (Table 3). All of these kinetic TGS hit compounds were synthesized (identified above and in Table 3). All the reactions were performed at 20-30 mg scale. The 9-fluorenylmethyl thioester was placed in a 2.0 mL vial and 3.5% DBU/dry DMF solution was added (per 1 μmol of thioester, 4.7 μL, of 3.5% DBU/dry DMF solution was added) and the reaction was stirred for one minute. Then the sulfonylazide (1 eq to thioester) was added to the reaction mixture and immediately bubbling was observed. After the reaction was completed (approximately one minute, monitored by LC-MS) water (200 μL) was added and the pH was adjusted to 7.0 using 1M HCl solution. The reaction mixture was extracted with DCM until there is no product in the aqueous layer (checked by TLC or LC-MS). The product was purified by flash chromatography. Testing of these acylsulfonamides has shown that the hit compounds disrupt the Bcl-XL/Bim or Mcl-1/Bim interaction (Table 3).

[2] = molecular target: Bcl-XL (Homo sapiens, UniProt Q07817); experiment: Inhibition of Bcl-XL (disruption of Bcl-XL/Bim interaction); type: binding; conditions: for % Inhibition (25 μM) Bcl-XL / inhibition at 25 µM: compound at 25 μM; for % Inhibition (50 μM) Bcl-XL / inhibition at 50 µM: compound at 50 μM
Chain of Bcl-XL (Q07817 whole entry, species assumed): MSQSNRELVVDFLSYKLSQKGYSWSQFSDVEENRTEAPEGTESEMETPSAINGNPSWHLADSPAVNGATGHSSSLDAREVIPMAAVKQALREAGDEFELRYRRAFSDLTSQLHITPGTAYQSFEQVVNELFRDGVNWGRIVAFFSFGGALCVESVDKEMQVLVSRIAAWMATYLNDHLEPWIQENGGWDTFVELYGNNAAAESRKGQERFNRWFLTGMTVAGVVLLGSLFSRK
Protocol: as §1

Chain of Mcl-1 (Q07820 whole entry, species assumed): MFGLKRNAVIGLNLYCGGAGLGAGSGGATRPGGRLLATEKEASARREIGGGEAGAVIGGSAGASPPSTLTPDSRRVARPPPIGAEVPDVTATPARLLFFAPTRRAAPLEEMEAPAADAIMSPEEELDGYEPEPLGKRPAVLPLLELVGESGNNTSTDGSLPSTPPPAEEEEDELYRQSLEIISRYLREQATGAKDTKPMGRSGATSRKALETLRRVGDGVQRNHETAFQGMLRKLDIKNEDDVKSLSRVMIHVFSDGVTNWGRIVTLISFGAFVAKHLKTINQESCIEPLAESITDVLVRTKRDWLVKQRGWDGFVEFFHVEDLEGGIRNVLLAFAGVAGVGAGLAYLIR

Row | Compound | % Inhibition (25 μM) Mcl-1 [1] [%] | % Inhibition (50 μM) Mcl-1 [1] [%] | % Inhibition (25 μM) Bcl-XL [2] [%] | % Inhibition (50 μM) Bcl-XL [2] [%] | IC50 [1] [µM] | inhibition at 25 µM [1] [%] | inhibition at 25 µM [2] [%] | inhibition at 50 µM [2] [%] | inhibition at 50 µM [1] [%] | IC50 [2] [µM]
1 | O=C(NS(=O)(=O)c1ccc(CN(CCSc2ccccc2)Cc2ccc3c(c2)OCO3)cc1)c1cccc(NCCc2ccccc2)c1 [SZ31TA44] | 14.9 | 36.5 | <2.0 | <2.0 | – | – | – | – | – | –
2 | Cn1cc(C(=O)c2cccs2)c2cc(C(=O)NS(=O)(=O)c3ccc(CN(CCSc4ccccc4)Cc4ccc5c(c4)OCO5)cc3)ccc21 [SZ31TA45] | 53.8 | 40.2 | 7.2 | <2.0 | – | – | – | – | – | –
3 | Cc1noc(C)c1-c1ccc(S(=O)(=O)NC(=O)c2ccc(CN3C(=O)C(c4ccc(F)cc4F)=C(c4ccc(F)cc4F)C3=O)cc2)cc1 [SZ32TA42] | – | – | – | – | 19.1 | 72.2 | 26 | 59.4 | – | –
4 | [N-]=[N+]=NS(=O)(=O)c1ccc(CN(CCSc2ccccc2)Cc2ccc(S(=O)(=O)NC(=O)c3ccc(-c4ccc(F)cc4)cc3)cc2)cc1 [SZ9TA14] | 30 | 42.5 | 8.4 | 7.0 | – | – | – | – | – | –
5 | Cn1cc(C(=O)C2CCCCC2)c2cc(C(=O)NS(=O)(=O)c3ccc(CN(CCSc4ccccc4)Cc4ccc5c(c4)OCO5)cc3)ccc21 [SZ31TA40] | <2.0 | <2.0 | <2.0 | <2.0 | – | – | – | – | – | –
6 | [N-]=[N+]=NS(=O)(=O)c1ccc(CN(CCSc2ccccc2)Cc2ccc(S(=O)(=O)NC(=O)CCCN3C(=O)C(c4ccc(F)cc4F)=C(c4ccc(F)cc4F)C3=O)cc2)cc1 [SZ9TA20] | – | – | – | – | – | 15.7 | < 2 | < 2 | 6.9 | –
7 | NS(=O)(=O)c1ccc(CN(CCSc2ccccc2)Cc2ccc(S(=O)(=O)NC(=O)CC3Sc4ccccc4NC3=O)cc2)cc1 (stereo not drawn) [SZ10TA34] | 19.4 | 64.1 | 17.4 | 27.0 | – | – | – | – | – | –
8 | COc1cc2c(cc1OC)C(c1ccccc1)N(Cc1ccc(S(=O)(=O)NC(=O)c3ccc(-c4ccc(F)cc4)cc3)cc1)CC2 (stereo not drawn) [SZ8TA14] | – | – | – | – | – | 35.2 | 14.4 | 13.9 | 58.3 | –
9 | COc1cc2c(cc1OC)C(c1ccccc1)N(CCS(=O)(=O)NC(=O)c1ccc(CN3C(=O)C(c4ccc(F)cc4F)=C(c4ccc(F)cc4F)C3=O)cc1)CC2 (stereo not drawn) [SZ27TA42] | 18.3 | 52.3 | 14.1 | 5.2 | – | – | – | – | – | –
10 | NS(=O)(=O)c1ccc(CN(CCSc2ccccc2)Cc2ccc(S(=O)(=O)NC(=O)CCCN3C(=O)C(c4ccc(F)cc4F)=C(c4ccc(F)cc4F)C3=O)cc2)cc1 [SZ10TA20] | – | – | – | – | – | 27.8 | 3.8 | < 2 | 7.6 | –
11 | Cn1cc(C(=O)C2CCCCC2)c2cc(C(=O)NS(=O)(=O)c3ccc(CN(CCSc4ccccc4)Cc4ccc(S(N)(=O)=O)cc4)cc3)ccc21 [SZ10TA40] | 37.2 | 35.2 | <2.0 | <2.0 | – | – | – | – | – | –
12 | O=C(Cn1c2ccccc2c2ccccc21)NS(=O)(=O)c1ccc(CN(CCSc2ccccc2)Cc2ccc3c(c2)OCO3)cc1 [SZ31TA15] | – | – | – | – | 14 | 82 | 18.5 | 21.4 | – | –
13 | O=C(NS(=O)(=O)c1ccc(CN(CCSc2ccccc2)Cc2ccc3c(c2)OCO3)cc1)c1ccc2c(ccn2Cc2ccc(C(F)(F)F)cc2C(F)(F)F)c1 [SZ31TA30] | 32.4 | 30.6 | <2.0 | <2.0 | – | – | – | – | – | –
14 | O=C(NS(=O)(=O)c1ccc(CN(CCSc2ccccc2)Cc2ccc3c(c2)OCO3)cc1)c1ccc(-c2ccc(F)cc2)cc1 [SZ31TA14] | 56.2 | 59.5 | 17.3 | 13.3 | – | – | – | – | – | –
15 | [N-]=[N+]=NS(=O)(=O)c1ccc(CN(CCSc2ccccc2)Cc2ccc(S(=O)(=O)NC(=O)c3cccc4ccccc34)cc2)cc1 [SZ9TA7] | – | – | – | – | 8.2 | – | – | 44.5 | – | –
16 | O=C(NS(=O)(=O)c1ccc(CN(CCSc2ccccc2)Cc2c(F)cccc2Cl)cc1)c1ccc(-c2ccc(F)cc2)cc1 [SZ15TA14] | 65.8 | 58.8 | 31.1 | 23.2 | – | – | – | – | – | –
17 | O=C(NS(=O)(=O)c1ccc(CN(CCSc2ccccc2)Cc2ccc3c(c2)OCO3)cc1)c1ccc(CCc2ccccn2)cc1 [SZ31TA17] | – | – | – | – | 16.8 | 84.3 | 40.2 | 77.7 | 88.6 | 31.3

Row | Compound | % Inhibition (25 μM) Mcl-1 [1] [%] | % Inhibition (50 μM) Mcl-1 [1] [%] | % Inhibition (25 μM) Bcl-XL [2] [%] | % Inhibition (50 μM) Bcl-XL [2] [%] | IC50 [1] [µM] | inhibition at 25 µM [1] [%] | inhibition at 25 µM [2] [%] | inhibition at 50 µM [2] [%] | inhibition at 50 µM [1] [%] | IC50 [2] [µM]
18 | O=C(NS(=O)(=O)c1ccc(CN(CCSc2ccccc2)Cc2ccc3c(c2)OCO3)cc1)c1ccc(C(c2c[nH]c3ccccc23)c2c[nH]c3ccccc23)cc1 [SZ31TA31] | <2.0 | <2.0 | <2.0 | <2.0 | – | – | – | – | – | –
19 | O=C(NS(=O)(=O)c1ccc(CN(CCSc2ccccc2)Cc2c(F)cccc2Cl)cc1)c1ccc(CCc2ccccn2)cc1 [SZ15TA17] | – | – | – | – | 20.2 | 79.6 | 43.4 | 60 | – | –
20 | O=C(NS(=O)(=O)CCN(CCSc1ccccc1)Cc1ccc2c(c1)OCO2)c1ccc2c(ccn2Cc2ccc(C(F)(F)F)cc2C(F)(F)F)c1 [SZ28TA30] | 42.8 | 60.5 | 9.7 | <2.0 | – | – | – | – | – | –
21 | O=C(NS(=O)(=O)c1ccc(CN2CCN(c3ccccc3)CC2)cc1)c1ccc2c(ccn2Cc2ccc(C(F)(F)F)cc2C(F)(F)F)c1 [SZ1TA30] | 11.8 | 2.6 | <2.0 | <2.0 | – | – | – | – | – | –
22 | O=C(NS(=O)(=O)c1ccc(-c2ccc(C(F)(F)F)cc2)cc1)c1cccc(NCCc2ccccc2)c1 [SZ16TA44] | – | – | – | – | 31.5 | 49.9 | 26.8 | 55.5 | – | –
23 | COc1cccc(CN(CCSc2ccccc2)Cc2ccc(S(=O)(=O)NC(=O)Cn3c4ccccc4c4ccccc43)cc2)c1 [SZ17TA15] | – | – | – | – | – | 53.3 | 3 | 12 | – | –
24 | COc1cccc(CN(CCSc2ccccc2)Cc2ccc(S(=O)(=O)NC(=O)c3ccc4c(c3)c(C(=O)C3CCCCC3)cn4C)cc2)c1 [SZ17TA40] | 25.8 | 58.5 | 7.5 | <2.0 | – | – | – | – | – | –
25 | COc1cc2c(cc1OC)C(c1ccccc1)N(Cc1ccc(S(=O)(=O)NC(=O)c3ccc(C(c4c[nH]c5ccccc45)c4c[nH]c5ccccc45)cc3)cc1)CC2 (stereo not drawn) [SZ8TA31] | <2.0 | <2.0 | <2.0 | <2.0 | – | – | – | – | – | –
26 | CC(C)(C)c1ccc(-c2ccc(S(=O)(=O)NC(=O)c3ccc4c(ccn4Cc4ccc(C(F)(F)F)cc4C(F)(F)F)c3)cc2)cc1 [SZ11TA30] | 53.1 | 63.6 | 8.5 | <2.0 | – | – | – | – | – | –
27 | O=C(NS(=O)(=O)c1ccc(NCCSc2ccccc2)c([N+](=O)[O-])c1)c1ccc2c(ccn2Cc2ccc(C(F)(F)F)cc2C(F)(F)F)c1 [SZ4TA30] | – | – | – | – | 26.1 | 68.7 | 41.2 | 42.6 | – | > 50
28 | Cc1nc(-c2ccccc2)sc1C(=O)NS(=O)(=O)c1ccc(CN(CCSc2ccccc2)Cc2ccc(S(=O)(=O)N=[N+]=[N-])cc2)cc1 [SZ9TA3] | – | – | – | – | 22.7 | – | – | 21.6 | 83.1 | –
29 | O=C(NS(=O)(=O)c1ccc(NCCSc2ccccc2)c([N+](=O)[O-])c1)c1ccc(CCc2ccccn2)cc1 [SZATA17] | 30.8 | 44.7 | 83.7 | 90.6 | 60.6 | – | – | – | – | 2.08
30 | COc1cccc(CN(CCSc2ccccc2)Cc2ccc(S(=O)(=O)NC(=O)c3sc(-c4ccccc4)nc3C)cc2)c1 [SZ17TA3] | – | – | – | – | 8.6 | – | – | 39.6 | 100 | –
31 | O=C(NS(=O)(=O)CCN(CCSc1ccccc1)Cc1ccc2c(c1)OCO2)c1ccc(C(c2c[nH]c3ccccc23)c2c[nH]c3ccccc23)cc1 [SZ28TA31] | 22.6 | 25.8 | 8.1 | <2.0 | – | – | – | – | – | –
32 | COc1ccc(Cc2ccc(C(=O)NS(=O)(=O)c3ccc(CN(CCSc4ccccc4)Cc4ccc5c(c4)OCO5)cc3)cc2)c(OC)c1OC [SZ31TA24] | – | – | – | – | 20 | 59.9 | 8.2 | 15.5 | – | –
33 | NS(=O)(=O)c1ccc(CN(CCSc2ccccc2)Cc2ccc(S(=O)(=O)NC(=O)c3cccc(NCCc4ccccc4)c3)cc2)cc1 [SZ10TA44] | 27.6 | 63.4 | 9.9 | 20.6 | – | – | – | – | – | –
